One assay concerns HCV genotype 1b replicon. The assay is described as follows: HCV replicon assay, genotype 1b replicon EC50. The settings on record: read-out: EC50 [gt-1b]. The class given is cell-based, Hepatitis C virus. Put shortly:
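Stable neomycin phosphotransferase-encoding replicon cell lines, kept under G418 selection beforehand, were plated with a compound dilution series without G418 and incubated 24-48 hours. Replicon RNA was then quantified, or luciferase activity read. EC50 was calculated as percent of DMSO control by four-parameter fit.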
A general note: In antiviral work, replicon cells carry a viral genome segment that copies itself.

Assay [1] addresses HCV NS3/4A protease genotype 1b (Hepatitis C virus genotype 1b, UniProt P26663). As to the kind of experiment: HCV NS3/4A protease time-resolved fluorescence (TRF) assay, Ki against genotype 1b. The class given is biochemical. The procedure, abridged: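 Ki was converted from fitted IC50 using IC50=Ki(1+[S]/KM) and 25 nM substrate. Protease (genotype 1b 0.2 nM, A156T 0.4 nM, 3a 0.025 nM) and compound were pre-mixed 30 min in pH 7.5 HEPES/NaCl/glycerol/DTT buffer. Cleavage then proceeded 2.5 h at room temperature, detected by time-resolved europium fluorescence (340/615 nm).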

Where [2] appears, read: Hepatitis C virus, HCV replicon, genotype 1b.
Where [3] appears, read: IC50 [gt-1b], NS3/4A protease TRF assay, genotype 1b enzyme 0.2 nM.
The mark [4] stands for this setting: Hepatitis C virus, genotype 1b replicon.
Setting [5] is: IC50 [gt-1b] (nM), NS3/4A genotype 1b, enzyme 0.2 nM.

Read-outs that look alike come from different tables or passages of the source.

The EC50 is the midpoint of the concentration-response curve. For orientation: IC50 means the concentration that inhibits the measured activity by half. Regarding `CCc1nc2ccc(OC)cc2c2c1O[C@]1(CC2)C[C@H]2C(=O)N[C@]3(C(=O)NS(=O)(=O)C4(C)CC4)C[C@H]3/C=C\CCCCC[C@H](NC(=O)c3ccn(CC)n3)C(=O)N2C1` [Example 467, (2R,6S,12Z,13aS,14aR,16aS)-5′-ethyl-6-{[(1-ethyl-1H-pyrazol-3-yl)carbonyl]amino}-9′-methoxy-N-[(1-methylcyclopropyl)sulfonyl]-5,16-dioxo-1,1′,2′,6,7,8,9,10,11,13a,14,15,16,16a-tetradecahydrospiro[cyclopropa[e]pyrrolo[1,2-a][1,4]diazacyclopentadecine-2,3′-pyrano[2,3-c]quinoline]-14a(5H)-carboxamide], the EC50 in the assay with HCV genotype 1b replicon (setting [2]) came out at 4.71 nM. In addition, it took 0.028 nM to reach half-maximal inhibition in assay [1] (setting [3]) (IC50).

For the compound “tert-Butyl (2R,6S,13aS,14aR,16aS,Z)-10′-chloro-5′-(difluoromethyl)-9′-methoxy-14a-(1-methylcyclopropylsulfonylcarbamoyl)-5,16-dioxo-1′,2′,3,5,6,7,8,9,10,11, 13a,14,14a,15,16,16a-hexadecahydro-1H-spiro[cyclopropa[e]pyrrolo[1,2-a][1,4]diaza cyclopentadecine-2,3′-pyrano[2,3-c]quinoline]-6-ylcarbamate [Example 27]”, the EC50 in the assay on HCV genotype 1b replicon (genotype 1b replicon) is 10.6 nM. In addition, the IC50 in assay [1] (NS3/4A genotype 1b, enzyme 0.2 nM, read-out: IC50 [gt-1b]) is 0.011 nM.

With `COCCCOc1ccc2nc(C)c3c(c2c1)CC[C@]1(C[C@H]2C(=O)N[C@]4(C(=O)NS(=O)(=O)C5(C)CC5)C[C@H]4/C=C\CCCCC[C@H](NC(=O)OCC(C)(C)C)C(=O)N2C1)O3` [Example 453, 2,2-dimethylpropyl [(2R,6S,12Z,13aS,14aR,16aS)-9′-(3-methoxypropoxy)-5′-methyl-14a-{[(1-methylcyclopropyl)sulfonyl]carbamoyl}-5,16-dioxo-1,1′,2′,5,6,7,8,9,10,11,13a,14,14a,15,16,16a-hexadecahydrospiro[cyclopropa[e]pyrrolo[1,2-a][1,4]diazacyclopentadecine-2,3′-pyrano[2,3-c]quinolin]-6-yl]carbamate], in the assay with HCV genotype 1b replicon (setting [2]), the EC50 was found to be 1.78 nM. Also, in assay [1] (setting [3]), the midpoint of inhibition, the IC50, lay at 0.017 nM.

`Cc1nc2ccccc2c2c1O[C@]1(CC2)C[C@H]2C(=O)N[C@]3(C(=O)NS(=O)(=O)C4(C)CC4)C[C@H]3/C=C\CCCCC[C@H](NS(=O)(=O)C3CC3)C(=O)N2C1` [Example 230, (2R,6S,12Z,13aS,14aR,16aS)-6-[(cyclopropylsulfonyl)amino]-5′-methyl-N-[(1-methylcyclopropyl)sulfonyl]-5,16-dioxo-1,1′,2′,6,7,8,9,10,11,13a,14,15,16,16a-tetradecahydrospiro[cyclopropa[e]pyrrolo[1,2-a][1,4]diazacyclopentadecine-2,3′-pyrano[2,3-c]quinoline]-14a(5H)-carboxamide]: in the assay with HCV genotype 1b replicon (setting [4]), the half-maximal effective concentration (EC50) worked out at 57.8 nM. In assay [1] (setting [5]), this compound registered an IC50 of 0.265 nM.

For `Cc1nc2c(C(F)(F)F)cccc2c2c1O[C@]1(CC2)C[C@H]2C(=O)N[C@]3(C(=O)NS(=O)(=O)C4CC4)C[C@H]3/C=C\CCCCC[C@H](NC(=O)OC(C)(C)C)C(=O)N2C1` [Example 95, tert-butyl [(2R,6S,12Z,13aS,14aR,16aS)-14a-[(cyclopropylsulfonyl)carbamoyl]-5′-methyl-5,16-dioxo-7′-(trifluoromethyl)-1,1′,2′,5,6,7,8,9,10,11,13a,14,14a,15,16,16a-hexadecahydrospiro[cyclopropa[e]pyrrolo[1,2-a][1,4]diazacyclopentadecine-2,3′-pyrano[2,3-c]quinolin]-6-yl]carbamate], the EC50 in the assay with HCV genotype 1b replicon (setting [4]) was found to be 5.24 nM. In addition, half-maximal inhibition in assay [1] (setting [5]) (IC50) required 0.993 nM.

`CC(C)(C)COC(=O)N[C@H]1CCCCC/C=C\[C@@H]2C[C@@]2(C(=O)NS(=O)(=O)C2(C)CC2)NC(=O)[C@@H]2C[C@]3(CCc4c(c(C5CC5)nc5c(F)cccc45)O3)CN2C1=O` [Example 192, 2,2-dimethylpropyl [(2R,6S,12Z,13aS,14aR,16aS)-5′-cyclopropyl-7′-fluoro-14a-{[(1-methylcyclopropyl)sulfonyl]carbamoyl}-5,16-dioxo-1,1′,2′,5,6,7,8,9,10,11,13a,14,14a,15,16,16a-hexadecahydrospiro[cyclopropa[e]pyrrolo[1,2-a][1,4]diazacyclopentadecine-2,3′-pyrano[2,3-c]quinolin]-6-yl]carbamate]: in the assay on HCV genotype 1b replicon (setting [4]), the EC50 is 9.61 nM. The IC50 in assay [1] (setting [5]) was found to be 0.019 nM.

`Cc1nc2ccccc2c2c1O[C@]1(CC2)C[C@H]2C(=O)N[C@]3(C(=O)NS(=O)(=O)C4(C)CC4)C[C@H]3/C=C\CCCCC[C@H](NC(=O)OC3CCCC3)C(=O)N2C1` [Example 96, cyclopentyl [(2R,6S,12Z,13aS,14aR,16aS)-5′-methyl-14a-{[(1-methylcyclopropyl)sulfonyl]carbamoyl}-5,16-dioxo-1,1′,2′,5,6,7,8,9,10,11,13a,14,14a,15,16,16a-hexadecahydrospiro[cyclopropa[e]pyrrolo[1,2-a][1,4]diazacyclopentadecine-2,3′-pyrano[2,3-c]quinolin]-6-yl]carbamate]: in the assay on HCV genotype 1b replicon (setting [4]), the EC50 is 0.796 nM. The same compound registered an IC50 in assay [1] (setting [5]) of 0.01 nM.

Take `COc1ccc2nc(CC(F)(F)F)c3c(c2c1)CC[C@]1(C[C@H]2C(=O)N[C@]4(C(=O)NS(=O)(=O)C5(C)CC5)C[C@H]4/C=C\CCCCC[C@H](NC(=O)OCC(C)(C)C)C(=O)N2C1)O3` [Example 48, Neopentyl((2R,6S,13aS,14aR,16aS,Z)-9′-methoxy-14a-(((1-methylcyclopropyl)sulfonyl)carbamoyl)-5,16-dioxo-5′-(2,2,2-trifluoroethyl)-1′,2′,3,5,6,7,8,9,10,11, 13a,14,14a,15,16,16a-hexadecahydro-1H-spiro[cyclopropa[e]pyrrolo[1,2-a][1,4]diazacyclopentadecine-2,3′-pyrano[2,3-c]quinolin]-6-yl)carbamate]: in the assay with HCV genotype 1b replicon (setting [4]), the EC50 was found to be 1.1 nM. The same compound gave an IC50 in assay [1] (setting [5]) of 0.006 nM.

For the compound `CC1(S(=O)(=O)NC(=O)[C@@]23C[C@H]2/C=C\CCCCC[C@H](NC(=O)OC2CCCC2)C(=O)N2C[C@@]4(CCc5c(c(C6CC6)nc6ccc7c(c56)OCO7)O4)C[C@H]2C(=O)N3)CC1` [Example 323, cyclopentyl [(2R,6S,12Z,13aS,14aR,16aS)-7′-cyclopropyl-14a-{[(1-methylcyclopropyl)sulfonyl]carbamoyl}-5,16-dioxo-1,5,6,7,8,9,10,10′,11,11′,13a,14,14a,15,16,16a-hexadecahydrospiro[cyclopropa[e]pyrrolo[1,2-a][1,4]diazacyclopentadecine-2,9′-[1,3]dioxolo[4,5-f]pyrano[2,3-c]quinolin]-6-yl]carbamate], the EC50 with HCV genotype 1b replicon (setting [4]) came to 11.4 nM. Also, the IC50 in assay [1] (setting [5]) amounted to 0.012 nM.

On to `Cc1nc2ccc(OC(F)F)cc2c2c1O[C@]1(CC2)C[C@H]2C(=O)N[C@]3(C(=O)NS(=O)(=O)C4(C)CC4)C[C@H]3/C=C\CCCCC[C@H](NC(=O)OC(C)(C)C)C(=O)N2C1` [Example 256, tert-butyl [(2R,6S,12Z,13aS,14aR,16aS)-9′-(difluoromethoxy)-5′-methyl-14a-{[(1-methylcyclopropyl)sulfonyl]carbamoyl}-5,16-dioxo-1,1′,2′,5,6,7,8,9,10,11,13a,14,14a,15,16,16a-hexadecahydrospiro[cyclopropa[e]pyrrolo[1,2-a][1,4]diazacyclopentadecine-2,3′-pyrano[2,3-c]quinolin]-6-yl]carbamate], for which, in the assay with HCV genotype 1b replicon (setting [4]), the EC50 was 3.08 nM. Inhibition in assay [1] (setting [5]) was half-maximal at 0.005 nM (IC50).

The record behind these values is patent US8987195B2 (priority 2012, dated 2015).
